Paper PMC6384891, “An automated microliter-scale high-throughput screening system (MSHTS) for real-time monitoring of protein aggregation using quantum-dot nanoprobes” (Scientific Reports, 2019)
Read-outs that look alike come from different tables or passages of the source.

What was measured:
Assay type in all cases: biochemical
[1] = biological target: T1, Aβ (Homo sapiens, UniProt P05067); assay: ThT assay of Aβ aggregation
T1 construct: Human Aβ42 (4349-v, Peptide Institute); purchased Peptide Institute 4349-v
Experimental: The ThT assay was conducted according to the method of Levine[10] modified in our laboratory.

[2] = biological target: T2, Aβ42 (Homo sapiens, UniProt P05067); assay: manual MSHTS system, Aβ aggregation inhibition
T2 construct: Human Aβ42 (4349-v, Peptide Institute); purchased Peptide Institute 4349-v
Experimental: The automated MSHTS system used was based on the method described in the Supplementary Methods. In this study, EC50 values of the plant crude extract library and the compound library were measured by the automated MSHTS system and the manual MSHTS system[19],[20], respectively. All fluorescence micrograph images were taken using a 4x objective in the MSHTS systems. […]
concentrations of RA were incubated with 30 µM A β and 30 nM QD 655-labeled Aβ or QD605-labeled Aβ in a 1536-well plate according to our previous reports1,5. Fluorescence micrographs […]
presence of 600 and 120 µM RA.
(1 picture or pasted object on this page, not shown here) […]
(§1) QDAβ were incubated with various concentrations of chaperones i n a 1536-well plate for 24 h at 37 ° C and observed by fluorescence microscopy. C, E, and P indicate CRT , ERp57, and PDI, respectively. EC50 and the SD values were determined from the micrographs of three independent

[3] = biological target: T2, Aβ42; assay: automated MSHTS system, Aβ aggregation inhibition imaged with QDAβ nanoprobe
Experimental: An outline of the automated MSHTS system developed in this study is as follows (Fig. 1e). First, sample solutions, such as natural extracts and/or chemical compounds, were diluted stepwise in a 384-well plate. The diluted samples in this plate were injected into a 1536-well plate at 2.5 µl per well (Supplementary Fig. S6a). […] The 1536-well plate was sealed, and each well was imaged by a fluorescence microscope system. After incubation to induce aggregation for 24 h at 37 °C, each well was imaged by a fluorescence microscope system. The images were analyzed to determine the SD values of fluorescence intensity of each pixel. The half-maximal effective concentration (EC50) was estimated from the SD values according to our previous method.
The automated MSHTS system used was based on the method described in the Supplementary Methods. In this study, EC50 values of the plant crude extract library and the compound library were measured by the automated MSHTS system and the manual MSHTS system[19],[20], respectively. All fluorescence micrograph images were taken using a 4x objective in the MSHTS systems.
Automated MSHTS system–sample preparation and mixing with Aβ
Sample preparation was carried out using Automated Workstation JANUS G3 (Perkin Elmer).
To make a dilution series of samples, dilution buffer (10%EtOH, 1×PBS) was aspirated ( asp. speed:
20 µl/s) using a conductive chip that can detect liquid level and injected (dsp. height: 0.75 mm, dsp. speed: 10 µl/s) into each well of a 384-well plate (384 Hard-shell micro plate HSP3951, BIO-RAD) without wells for injecting stoc k sample solution. Stock sample solutions were prepared, and were injected manually into the vacant wells of the 384-well plate. As a control without any inhibitor, dilution buffer alone was injected into the well instead of stock sample solution. The stock sample solution or control solution was aspirated (asp. height: 2 mm, asp. speed: 10 µl/s), injected (dsp. height: 4 mm, dsp. speed: 10 µl/s) into the next well containing the dilution buffer, and mixed by pipetting (asp. height: 2 mm, dsp. height: 4 m m , mix speed: 25 µl/s, mix cycles: 5). This dilution st ep was repeated five times, so that si x dilution series were prepared for each sample. The diluted samples in the 384-well plate were aspirated using a 384-chip head (asp. height: 1 mm, asp. speed:
3 µl/s) and injected (quadruplicate) (dsp. height: 1 mm, dsp. speed: 10 µl/s) into a 1536-well plate (1536 well FIA black plate, Greiner Bio-One) at 2.5 µl per well. […]
After centrifugation in a multi-well plate centrifuge, the 1536-well plate was observed by an inverted fluorescence microscope system (ECLIPSE Ti-E, Nikon) equipped with a color CCD camer a (DS-Ri2, Nikon). […]

[4] = biological target: T3, tau MBD fragment (Mus musculus, UniProt P10637); assay: MSHTS system, tau aggregation inhibition with QDTau nanoprobe; conditions: 10 µM tau, 50 nM QDTau, 10 µM heparin, 10 mM DTT, 24 h at 37 °C
T3 construct: added N-terminal methionine (from NdeI site) (N); made in house; host or cells: E. coli Rosetta (DE3) pLys, pET-21a(+)
From the text: In this study, we used the microtubule-binding domain (MBD) fragment of 4-repeat tau (Fig. 4a) to image tau aggregation. First, we examined the aggregated condition of tau in the presence of heparin, which formed paired helical-like filaments under physiological conditions in vitro, according to early reports[24],[25]. […] Since 4-repeat tau contains two Cys residues (C222 and C253), it may be necessary for aggregation to occur, to inhibit intramolecular disulfide crosslinking, as was reported in a previous report. […] When 10 μM tau was incubated in the presence of 10 mM DTT, the SD value reached a maximum (Supplementary Fig. S10c,d), so we decided to observe aggregation using 10 μM tau. […] We compared tau and Aβ aggregates by TEM observation. The morphology of tau and Aβ fibrils was difficult to distinguish (Fig. 4b). […] We also confirmed by TEM observation that the aggregation of tau and Aβ contained QD nanoprobes (Fig. 4d). These aggregations were directly observed by confocal microscopy in real time (Fig. 4e). […] The imaging method using a QD nanoprobe without a drying step as in TEM observation may be suitable for detailed observation of aggregate shapes in solution.
Supplementary Fig. S11 Inhibition of tau aggregation by RA (a) and spearmint extract (b). 10 µM tau, 50 nM QDTau, 10 µM heparin, 10 mM DTT were incubated with various concentrations of RA […]
for 24 h at 37 ° C and observed by fluorescence microscopy. EC50 and the SD values were determined from the micrographs of three independent wells.
(1 picture or pasted object on this page, not shown here)
as §1, with “Supplementary Fig. S12 Inhibition of tau and Aβ aggregation by chaperones. 10 µM tau, 50 nM QDTau, 10 µM heparin, 10 mM DTT were incubated with various concentrations of chaperon es in a 1536-well plate for 24 h at 37 °C and observed by fluorescence microscopy. 30 µM Aβ , 30 nM QDAβ” for “QDAβ”

[5] = tropolone derivatives, read-out: ThT [µM], EC50, Supplementary Table S4 (converted)
[6] = compound library, Aβ aggregation, read-out: EC50 by MSHTS system (MA), Fig. 3
[7] = screening of compound library by MSHTS
[8] = 1st screening, read-out: EC50 [µM] by MSHTS system, Supplementary Table S2 (converted)
[9] = Aβ aggregation, read-out: EC50 by ThT assay (TA), Fig. 3
[10] = 2nd screening, tropolone derivatives, read-out: EC50 [µM] by MSHTS system, Supplementary Table S3 (converted)
[11] = 30 µM Aβ, 30 nM QDAβ, 24 h at 37 °C, read-out: EC50 (μM) Aβ

T1 sequence (P05067 672-713 limits assumed): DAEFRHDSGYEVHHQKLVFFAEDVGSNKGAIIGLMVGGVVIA
T2 sequence (P05067 672-713 limits assumed): as above
T3 sequence (P10637 with tags, fused parts or gaps isoform P10637-5 limits assumed): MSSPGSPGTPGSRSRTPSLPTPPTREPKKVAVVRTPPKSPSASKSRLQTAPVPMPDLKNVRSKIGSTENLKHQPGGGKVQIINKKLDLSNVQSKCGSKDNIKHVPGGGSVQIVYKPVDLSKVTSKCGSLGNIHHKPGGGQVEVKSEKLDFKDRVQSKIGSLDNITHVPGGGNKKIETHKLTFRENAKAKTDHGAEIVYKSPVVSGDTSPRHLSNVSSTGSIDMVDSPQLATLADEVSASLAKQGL

In the case of `O=c1ccc(-c2cccc([N+](=O)[O-])c2)ccc1O` [MO-006], the EC50 [1, 5] is reported as 75 µM.

`COc1ccc(-c2cccc([N+](=O)[O-])c2)ccc1=O` [MO-007] was tested, and the EC50 [2, 6] was 144 ± 62 µM and the “Aβ aggregation inhibitory activity (in words)” value [2, 7] was “active”.

`Nc1ccc(O)c(=O)cc1` [MO-009] was tested, and the EC50 [2, 8] was 19.1 µM, the “Aβ aggregation inhibitory activity (in words)” value [2, 7] was “active” and the EC50 [1, 5] was 87.6 µM.

For `O=c1ccc(-c2ccc([N+](=O)[O-])cc2)ccc1O` [MO-010], the EC50 [2, 8] was 52.5 µM, the “Aβ aggregation inhibitory activity (in words)” value [2, 7] was “active” and the EC50 [1, 9] was 144 ± 29 µM.

For `COc1ccc(-c2ccc([N+](=O)[O-])cc2)ccc1=O` [MO-011], the EC50 [2, 6] was 200 ± 66 µM and the “Aβ aggregation inhibitory activity (in words)” value [2, 7] was “active”.

`O=Nc1ccc(O)c(=O)cc1` [MO-020] was tested, and the EC50 [2, 6] was 154 ± 23 µM, the “Aβ aggregation inhibitory activity (in words)” value [2, 7] was “active” and the EC50 [1, 9] was 152 ± 15 µM.

With `Oc1cc2ccccc2cc1O` [MO-038] the EC50 [2, 8] was 31.4 µM and the “Aβ aggregation inhibitory activity (in words)” value [2, 7] was “active”.

Work on `O=c1cccccc1O` [MO-073] yielded an EC50 [1, 9] of 1610 µM.

`CN(C)c1ccc(B(O)O)cc1` [MO-074] was tested, and the EC50 [2, 8] was 53.1 µM and the “Aβ aggregation inhibitory activity (in words)” value [2, 7] was “active”.

For `O=C1C=CC(=O)C=C1` [MO-100], the “Aβ aggregation inhibitory activity (in words)” value [2] was “active” and the EC50 [2] was 56 µM.

With `O=C(/C=C/c1ccc(O)c(O)c1)O[C@H](Cc1ccc(O)c(O)c1)C(=O)O` [RA, rosmarinic acid] the EC50 ([3]; 25 µM Aβ, 25 nM QDAβ, 1536-well plate, 24 h at 37 °C, average of 61 sets, read-out: EC50 of Aβ aggregation inhibition, positive control) was 26.9 ± 4.57 µM, the “Aβ aggregation inhibition at 120 µM, mixed by pipetting 10 times” value ([3]; 120 µM, pipetting 10 times) was “did not inhibit” and the “Aβ aggregation inhibition at 120 µM, mixed by pipetting three or five times” value ([3]; 120 µM, pipetting three or five times) was “inhibited”. The “Aβ aggregation at 300 and 60 µM” value ([3]; 300 and 60 µM, 25 µM Aβ, 24 h at 37 °C) was “inhibited”, the “Aβ aggregation at 600 and 120 µM” value ([2]; 600 and 120 µM, 30 µM Aβ, 30 nM QD655- or QD605-labeled Aβ) was “inhibited” and the “EC50 of tau aggregation inhibition (in words)” value [4] was “could not be determined”.

In the case of `O=c1ccc(/N=N/c2ccc([N+](=O)[O-])cc2)ccc1O` [TR-001], the EC50 [2, 6] is reported as 258 µM.

`O=c1ccc(/N=N/c2cccc([N+](=O)[O-])c2)ccc1O` [TR-002] gave an EC50 [2, 10] of 232 µM.

In the case of `O=c1ccc(/N=N/c2cc([N+](=O)[O-])cc([N+](=O)[O-])c2)ccc1O` [TR-003], the EC50 ([2]; tropolone derivatives, read-out: MSHTS [µM], EC50, Supplementary Table S4) is reported as 6.6 µM and the EC50 [1, 5] is reported as 18.4 µM.

`O=c1ccc(/N=N/c2cc(C(F)(F)F)cc(C(F)(F)F)c2)ccc1O` [TR-004] was tested, and the “Aβ aggregation inhibitory activity (in words)” value [2, 7] was “no activity”.

`N#Cc1ccc(/N=N/c2ccc(O)c(=O)cc2)cc1C(F)(F)F` [TR-007] gave an EC50 [2, 10] of 13.9 µM and an EC50 [1, 9] of 4.86 ± 0.9 µM.

`N#Cc1cccc(/N=N/c2ccc(O)c(=O)cc2)c1` [TR-027] showed an EC50 [2, 10] of 38.7 µM and an EC50 [1, 5] of 83 µM.

Protein disulfide isomerase [PDI] gave an EC50 [2, 11] of 1 ± 0.206 µM and an EC50 [4] of 12.7 ± 4.6 µM.

B1: ERp57: chaperone (protein, UniProt P30101 25-505, looked up)
Protein disulfide-isomerase A3: SDVLELTDDNFESRISDTGSAGLMLVEFFAPWCGHCKRLAPEYEAAATRLKGIVPLAKVDCTANTNTCNKYGVSGYPTLKIFRDGEEAGAYDGPRTADGIVSHLKKQAGPASVPLRTEEEFKKFISDKDASIVGFFDDSFSEAHSEFLKAASNLRDNYRFAHTNVESLVNEYDDNGEGIILFRPSHLTNKFEDKTVAYTEQKMTSGKIKKFIQENIFGICPHMTEDNKDLIQGKDLLIAYYDVDYEKNAKGSNYWRNRVMMVAKKFLDAGHKLNFAVASRKTFSHELSDFGLESTAGEIPVVAIRTAKGEKFVMQEEFSRDGKALERFLQDYFDGNLKRYLKSEPIPESNDGPVKVVVAENFDEIVNNENKDVLIEFYAPWCGHCKNLEPKYKELGEKLSKDPNIVIAKMDATANDVPSPYEVRGFPTIYFSPANKKLNPKKYEGGRELSDFISYLQREATNPPVIQEEKPKKKKKAQEDL
Molecule B1 has an EC50 [2, 11] of 0.321 ± 0.073 µM and an EC50 [4] of 4.79 ± 1.19 µM.

B2: calreticulin (protein, UniProt P27797 18-417, looked up)
Calreticulin: EPAVYFKEQFLDGDGWTSRWIESKHKSDFGKFVLSSGKFYGDEEKDKGLQTSQDARFYALSASFEPFSNKGQTLVVQFTVKHEQNIDCGGGYVKLFPNSLDQTDMHGDSEYNIMFGPDICGPGTKKVHVIFNYKGKNVLINKDIRCKDDEFTHLYTLIVRPDNTYEVKIDNSQVESGSLEDDWDFLPPKKIKDPDASKPEDWDERAKIDDPTDSKPEDWDKPEHIPDPDAKKPEDWDEEMDGEWEPPVIQNPEYKGEWKPRQIDNPDYKGTWIHPEIDNPEYSPDPSIYAYDNFGVLGLDLWQVKSGTIFDNFLITNDEAYAEEFGNETWGVTKAAEKQMKDKQDEEQRLKEEEEDKKRKEEEEAEDKEDDEDKDEDEEDEEDKEEDEEEDVPGQAKDEL
notes: chaperone
B2 gave an EC50 [2, 11] of 0.191 ± 0.04 µM and an EC50 [4] of 0.843 ± 0.047 µM.
